In patent US11420940B2, “4-carboxamido-isoindolinone derivatives as selective parp-1 inhibitors” (NERVIANO MEDICAL SCIENCES S.r.l, priority 2012, dated 2022):

What was measured:
[1] = system: BRCA-mutated breast, ovarian and prostate cancer; conditions: 19 patients with BRCA mutations and breast; cited from earlier work
[2] = Pharmacokinetics and oral bioavailability in the mouse; type: in vivo; conditions: 10 mg/kg, oral vs IV dose-normalized AUC
[3] = system: Capan-1 human pancreatic cancer tumors; assay: In vivo efficacy as single agent, Capan-1 BRCA-2 mutated mouse model; conditions: 75 mg/kg oral, daily (schedule 1-8 or 1-10)
Excerpt: Balb, athymic Nu/Nu male mice, from Harlan (Italy), were maintained in agreement with the European Communities Council Directive no. 86/609/EEC concerning the protection of animals used for experimental or other scientific purposes, in cages with paper filter cover, food and bedding sterilized and acidified water. Fragments of Capan-1 human pancreatic cancer tumors were implanted subcutaneously. […] Each group included seven animals. The treatment started one day after randomization. Compound of formula (I) was administered by oral route as a methocel suspension at the indicated doses and times. Tumor dimension was measured regularly by calipers during the experiments and tumor mass was calculated as described in Simeoni M. et al., Cancer Res 64, 1094-1101 (2004).

Row | Structure (SMILES) | objective response rate [1] | F on AUC [2] | Max TGI (%) [3]
1 | O=C(c1cc(Cc2n[nH]c(=O)c3ccccc23)ccc1F)N1CCN(C(=O)C2CC2)CC1 [Olaparib] | 47% |  | 
2 | NC(=O)c1cccc2c1C(=O)N(CCN1CCc3ccccc3C1)C2 [(3), 2-[2-(3,4-dihydro-1H-isoquinolin-2-yl)-ethyl]-3-oxo-2,3-dihydro-1H-isoindole-4-carboxylic acid amide] |  | 30% | 
3 | NC(=O)c1cccc2c1C(=O)N(C1CCN(Cc3ccoc3)CC1)C2 [(14), 2-(1-furan-3-ylmethyl-piperidin-4-yl)-3-oxo-2,3-dihydro-1H-isoindole-4-carboxylic acid amide] |  | 57% | 
4 | NC(=O)c1cccc2c1C(=O)N(C1CCN(Cc3ccccn3)CC1)C2 [(15), 3-oxo-2-(1-pyridin-2-ylmethyl-piperidin-4-yl)-2,3-dihydro-1H-isoindole-4-carboxylic acid amide] |  | 68% | 54%
5 | NC(=O)c1cccc2c1C(=O)N(C1CCN(C3CCCCC3)CC1)C2 [(11), 2-(1-cyclohexyl-piperidin-4-yl)-3-oxo-2,3-dihydro-1H-isoindole-4-carboxylic acid amide] |  | 100% | 42%
6 | NC(=O)c1cccc2c1C(=O)N(C1CCN(Cc3ccc[nH]3)CC1)C2 [(16), 3-oxo-2-[1-(1H-pyrrol-2-ylmethyl)-piperidin-4-yl]-2,3-dihydro-1H-isoindole-4-carboxylic acid amide] |  | 37% | 
